Experimental data published in the C3SDB collision cross section collection.

Legend:
[1] = instrument: DT, stepped-field
[2] = instrument: DT, stepped-field; remark: listed apart in the source
[3] = instrument: DT, single field, calibrated with Agilent tune mix (Agilent)

Row | SMILES | collision cross section (N2) ([2]; [M+H]+) [Å²] | collision cross section (N2) ([2]; [M-H]-) [Å²] | further results
1 | CSCC[C@H](N)C(=O)O [L-Methionine] | 134.08 |  | collision cross section (N2) ([1]; [M+H]+): 133.65 Å²
2 | CC[C@H](C)[C@H](NC(=O)[C@H](Cc1ccc(O)cc1)NC(=O)[C@@H](NC(=O)[C@H](CCCN=C(N)N)NC(=O)[C@@H](N)CC(=O)O)C(C)C)C(=O)N[C@@H](Cc1cnc[nH]1)C(=O)N1CCC[C@H]1C(=O)N[C@@H](Cc1ccccc1)C(=O)O [Angiotensin II] | 314.38 |  | collision cross section (N2) ([2]; [M+2H]2+): 353.79 Å²; collision cross section (N2) ([2]; [M+3H]3+): 436.24 Å²
3 | CCCCCCCCCCCCCCCCC(=O)O [Margaric acid] |  | 173.41 | 
4 | CCCCC/C=C\C/C=C\CCCCCCCCCC(=O)O [cis-11,14-Eicosadienoic acid] |  | 183.32 | 
5 | CCCCCCCC/C=C\CCCCCCCC(=O)O [Oleic acid] |  | 176.46 | collision cross section (N2) ([3]; [M-H]-): 173.88 Å²
6 | N[C@@H](Cc1ccc(O)cc1)C(=O)O [L-Tyrosine] | 146.45 | 145.59 | collision cross section (N2) ([3]; [M+H]+): 145.7 Å²; collision cross section (N2) ([1]; [M+Na]+): 143.97 Å²
7 | OC[C@H]1OC(O)[C@H](O)[C@@H](O)[C@@H]1O (stereo partly drawn) [a-D-Glucose] |  |  | collision cross section (N2) ([2]; [M+Na]+): 147.35 Å²
8 | CCCCCCCCCCCCCCCCCC(=O)O [Stearic acid] |  | 177.66 | collision cross section (N2) ([3]; [M-H]-): 174.42 Å²
9 | CCCCCCCC/C=C\CCCCCCCCCC(=O)O [cis-Gondoic acid] |  | 184.29 | 
10 | NC(N)=NCCC[C@H](N)C(=O)O [L-Arginine] | 136.84 | 138.03 | collision cross section (N2) ([3]; [M+H]+): 136.4 Å²; collision cross section (N2) ([1]; [M+Na]+): 147.8 Å²
11 | CCCCC/C=C\C/C=C\C/C=C\CCCCCCC(=O)O [Dihomo-gamma-Linolenic Acid] |  | 183.02 | 
12 | CC[C@H](C)[C@H](N)C(=O)O [L-Isoleucine] | 133.81 | 131.29 | collision cross section (N2) ([1]; [M+H]+): 136.97 Å²
13 | N[C@@H](Cc1ccccc1)C(=O)O [L-Phenylalanine] | 141.28 | 141.29 | collision cross section (N2) ([3]; [M+H]+): 140.3 Å²; collision cross section (N2) ([1]; [M+Na]+): 138.91 Å²
